Measured values taken from publication PMC11551755, “Structure-based discovery of first inhibitors targeting the helicase activity of human PIF1” (Nucleic Acids Research, 2024).

Biological target: T1, FLhPIF1 (Homo sapiens, UniProt Q9H611)
T1 construct: Full length human PIF1 (FLhPIF1) was expressed and purified as a His-SUMO fusion; His-SUMO (cleaved yes); made in house; 'following similar protocols' to hPIF1HD (ArcticExpress BL21(DE3) E. coli)
T1 sequence (Q9H611 1-641): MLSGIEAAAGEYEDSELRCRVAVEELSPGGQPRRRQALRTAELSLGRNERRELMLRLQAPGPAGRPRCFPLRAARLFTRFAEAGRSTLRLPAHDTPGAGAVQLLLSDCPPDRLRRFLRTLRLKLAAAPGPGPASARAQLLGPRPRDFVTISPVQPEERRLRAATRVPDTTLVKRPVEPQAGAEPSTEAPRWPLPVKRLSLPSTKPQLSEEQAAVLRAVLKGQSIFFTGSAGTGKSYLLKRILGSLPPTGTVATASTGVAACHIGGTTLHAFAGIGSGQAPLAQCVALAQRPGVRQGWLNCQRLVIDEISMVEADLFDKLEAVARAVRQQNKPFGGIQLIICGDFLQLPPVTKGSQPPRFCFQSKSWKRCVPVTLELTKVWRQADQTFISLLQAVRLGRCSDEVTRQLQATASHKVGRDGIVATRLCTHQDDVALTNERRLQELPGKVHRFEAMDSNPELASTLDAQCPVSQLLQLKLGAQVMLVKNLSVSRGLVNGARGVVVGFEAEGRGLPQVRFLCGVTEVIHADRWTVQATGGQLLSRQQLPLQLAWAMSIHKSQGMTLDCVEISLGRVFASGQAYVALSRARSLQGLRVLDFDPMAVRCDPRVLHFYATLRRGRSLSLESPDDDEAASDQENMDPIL
Test: helicase assay after pre-incubation of SMI with FLhPIF1
Type: biochemical
Conditions: for pre-incubation time-course, inhibition of unwinding: 0–3 h pre-incubation, 100 nM FLhPIF1, 100 μM SMI, n = 4; for effect of pre-incubation on inhibition of unwinding: 100 μM SMI with 100 nM FLhPIF1, 1 h at 22°C, then 1:10 dilution, compared to no pre-incubation; for IC50: 2 h pre-incubation at 22°C with 100 nM FLhPIF1, then 1:10 dilution into helicase assay, read-out: IC50 for dsDNA unwinding by FLhPIF1 following pre-incubation
Procedure: Helicase activity was assayed using a radiometric strand displacement assay employing a partially single- and double-stranded substrate generated by annealing two oligonucleotides: 5′-(T)55-[…] and 5′-[…], as described previously ([19],[28]). The reaction buffer was 20 mM HEPES–NaOH pH 7.5, 20 mM NaCl, 5.5 mM MgCl2, 5 mM ATP, 1 mM DTT and 0.1 mg/ml BSA. SMIs (100 mM stocks in DMSO) were assayed at up to 2 mM without pre-incubation with FLhPIF1, unless otherwise stated. Reactions (0.1 nM substrate) were incubated at 37°C for 20 min, followed by addition of 0.2 volumes of 120 mM EDTA, 0.6% (w/v) SDS, 60% (v/v) glycerol and 0.1% (w/v) bromophenol blue before resolution of products by polyacrylamide gel electrophoresis (8%, 19:1 acrylamide:bis-acrylamide), 1× TBE (90 mM Tris–borate/2 mM EDTA, pH 8.3 with 0.05% (w/v) SDS buffer). Dried gels were exposed to phosphorimaging plates (Fujifilm) for imaging and quantification (Fuji FLA3000, image gauge V3.3 software). IC50 values were analysed by non-linear regression (variable slope) using GraphPad Prism.
First, we screened inhibitory activity of the SMIs listed in Table 1, following incubation of 100 nM FLhPIF1 with 100 μM SMI for 1 h at 22°C in the absence of substrates (ATP and DNA), before a 1:10 dilution into helicase reactions. […] Next, compounds 2, 5, 6 and 11, along with 4 and 1D were selected for analysis in a pre-incubation time-course (100 nM FLhPIF1, 100 μM SMI), up to 3 h before assaying helicase activity.
In parallel, IC50 values for inhibition of human UPF1 (hUPF1) helicase activity by the SMIs were also determined under the same conditions. UPF1-like SF1B helicases are the most closely related family of helicases to PIF1, with significant structural and mechanistic similarity ([52]).
Figure 6. SMI IC50 for dsDNA unwinding determined following pre-incubation. SMIs (0.0078–2 mM SMI) were incubated for 2 h at 22°C (100 nM FLhPIF1 or hUPF1) before dilution (1:10) in the standard helicase assay (0.1 nM DNA substrate). For 1D and 6, structures, electrophoresis of FLhPIF1 reaction product and graphs for IC50 value determination are shown. The graphed data include the activity of SMIs towards hUPF1 and IC50 values obtained are given. See Supplementary Figure S14 for the complete data set. TEXT PRINTED IN THE PICTURE: 1D: IC50 (μM): PIF1: 978 ± 221; IC50 (μM): UPF1: N.D. | 6: IC50 (μM): PIF1: 79.4 ± 16; IC50 (μM): UPF1: 1750 ± 426

| SMILES | pre-incubation time-course, inhibition of unwinding | effect of pre-incubation on inhibition of unwinding | IC50 [µM] |
| --- | --- | --- | --- |
| CC(=O)c1ccc(-c2csc(N)n2)cc1 [Compound 2] | increasing inhibition with increasing time of pre-incubation | significantly enhanced inhibitory activity | 65 ± 25 |
| N#Cc1ccc(-c2csc(N)n2)cc1 [Compound 5] | increasing inhibition with increasing time of pre-incubation | significantly enhanced inhibitory activity | 67.4 ± 20 |
| Nc1nc(-c2ccc(C(=O)c3ccccc3)cc2)cs1 [Compound 6] | increasing inhibition with increasing time of pre-incubation | significantly enhanced inhibitory activity | 79.4 ± 16 |
| CC(=O)Nc1ccc(-c2csc(N)n2)cc1-c1ccc(C)cc1 [Compound 10] | – | significantly enhanced inhibitory activity | – |
| CC(=O)Nc1ccc(-c2csc(N)n2)cc1C1=CCNCC1 [Compound 11] | increasing inhibition with increasing time of pre-incubation | significantly enhanced inhibitory activity | 109 ± 47 |
